The values below come from patent US20240261274A1, “TREATMENT OF MYC-DRIVEN CANCERS WITH GSPT1 DEGRADERS” (MONTE ROSA THERAPEUTICS, INC., priority 2021, published 2024).

For assay [1], the target named is T1, Full length wild-type cereblon CRBN (Homo sapiens, UniProt Q96SW2).
T1 construct: Full length wild-type cereblon CRBN (80.0 nM, 10 μL) was incubated in assay buffer
Put plainly: Fluorescence polarization (FP) assay indicating cereblon binding. The conditions noted are these: bound stated; read-out: IC50 value. The method in brief: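 Full-length wild-type CRBN at 80.0 nM was preincubated 30 min at room temperature with compound (12-point curve, 300–0.937 or 3000–9.3 nM) in 20 mM HEPES pH 8.0, 150 NaCl, 0.5 mM TCEP, 0.05% Tween 20. Cy5-type thalidomide-based probe added at 5 nM final; FP read after 12 h (ex 590/em 675 nm), normalized to DMSO, IC50 fitted.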
On the technique in general: Polarisation of emitted light reports the rotation of a fluorescent probe.

For the next assay, the target named is T2, IKZF1 (Homo sapiens, UniProt Q13422+Q96SW2).
T2 construct: endogenous in cells; host or cells: MM1 S (ATCC CRL-2974)
T2 sequence (Q13422 whole entry): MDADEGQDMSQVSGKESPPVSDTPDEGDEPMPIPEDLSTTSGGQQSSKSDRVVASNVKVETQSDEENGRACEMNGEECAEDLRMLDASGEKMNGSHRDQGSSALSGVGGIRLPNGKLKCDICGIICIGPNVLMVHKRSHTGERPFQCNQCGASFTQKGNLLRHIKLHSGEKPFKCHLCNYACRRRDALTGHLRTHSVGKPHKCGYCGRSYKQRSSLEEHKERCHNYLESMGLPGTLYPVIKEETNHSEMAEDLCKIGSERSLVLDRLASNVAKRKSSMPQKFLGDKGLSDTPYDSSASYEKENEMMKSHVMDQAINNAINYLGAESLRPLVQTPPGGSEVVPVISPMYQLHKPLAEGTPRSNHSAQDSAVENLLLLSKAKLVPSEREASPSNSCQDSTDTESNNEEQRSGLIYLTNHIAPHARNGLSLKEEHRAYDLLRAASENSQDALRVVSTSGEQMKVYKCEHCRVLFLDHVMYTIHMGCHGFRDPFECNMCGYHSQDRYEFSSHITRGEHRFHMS
T2 sequence (Q96SW2 whole entry): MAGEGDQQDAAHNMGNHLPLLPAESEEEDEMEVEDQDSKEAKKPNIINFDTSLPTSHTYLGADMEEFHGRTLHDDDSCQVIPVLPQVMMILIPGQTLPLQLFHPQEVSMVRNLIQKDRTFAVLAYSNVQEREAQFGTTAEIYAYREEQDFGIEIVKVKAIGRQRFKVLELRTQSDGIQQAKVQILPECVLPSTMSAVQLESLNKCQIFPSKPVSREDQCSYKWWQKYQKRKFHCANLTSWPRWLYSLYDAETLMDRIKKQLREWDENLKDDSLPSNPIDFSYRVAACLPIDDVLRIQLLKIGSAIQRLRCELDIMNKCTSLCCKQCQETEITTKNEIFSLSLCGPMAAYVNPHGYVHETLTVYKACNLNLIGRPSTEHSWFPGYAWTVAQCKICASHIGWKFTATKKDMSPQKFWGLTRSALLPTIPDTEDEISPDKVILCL
T2 sequence (Q16531 whole entry partner): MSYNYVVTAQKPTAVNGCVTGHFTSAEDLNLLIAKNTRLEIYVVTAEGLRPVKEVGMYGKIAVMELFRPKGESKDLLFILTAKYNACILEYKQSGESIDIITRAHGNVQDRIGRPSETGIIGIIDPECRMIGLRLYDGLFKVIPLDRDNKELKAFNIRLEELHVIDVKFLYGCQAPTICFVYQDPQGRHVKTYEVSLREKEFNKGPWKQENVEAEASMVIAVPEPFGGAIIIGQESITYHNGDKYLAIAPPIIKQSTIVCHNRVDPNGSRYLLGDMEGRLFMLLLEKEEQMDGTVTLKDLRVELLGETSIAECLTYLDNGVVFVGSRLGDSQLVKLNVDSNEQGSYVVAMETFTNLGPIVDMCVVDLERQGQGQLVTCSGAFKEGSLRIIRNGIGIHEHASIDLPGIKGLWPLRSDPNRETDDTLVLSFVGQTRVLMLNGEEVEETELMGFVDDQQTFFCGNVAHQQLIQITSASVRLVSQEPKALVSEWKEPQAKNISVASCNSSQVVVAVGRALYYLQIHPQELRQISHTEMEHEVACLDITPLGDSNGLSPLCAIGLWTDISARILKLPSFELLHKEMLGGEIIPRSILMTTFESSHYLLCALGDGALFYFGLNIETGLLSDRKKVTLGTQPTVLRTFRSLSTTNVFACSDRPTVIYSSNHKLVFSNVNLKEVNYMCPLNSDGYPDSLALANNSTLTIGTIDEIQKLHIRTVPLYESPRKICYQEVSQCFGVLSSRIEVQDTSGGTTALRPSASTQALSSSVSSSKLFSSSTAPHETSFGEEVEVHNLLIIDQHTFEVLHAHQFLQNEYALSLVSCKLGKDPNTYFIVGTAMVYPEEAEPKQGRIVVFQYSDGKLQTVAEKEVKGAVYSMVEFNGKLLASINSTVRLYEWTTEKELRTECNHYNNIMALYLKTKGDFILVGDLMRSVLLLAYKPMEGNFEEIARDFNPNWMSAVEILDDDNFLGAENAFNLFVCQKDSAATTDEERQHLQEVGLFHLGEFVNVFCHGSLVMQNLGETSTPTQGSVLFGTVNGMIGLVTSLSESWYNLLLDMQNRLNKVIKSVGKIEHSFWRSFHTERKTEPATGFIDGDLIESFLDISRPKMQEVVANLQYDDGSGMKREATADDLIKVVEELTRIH
Put plainly: Selectivity western blot assay in MM1 S cells, IKZF1. Type of assay: cell-based. Also noted: key: A represents no degradation observed at 30 μM; B represents trace degradation at 30 μM (below 20%); C represents weak degradation at 30 μM (below 50%); D represents degradation at 30 μM (>90%); E represents degradation at 3 μM (>90%); F represents degradation at 0.3 μM (>90%). Conditions: MM1 S cells, 0.3, 3 and 30 μM, 6 hours. On the procedure:
(§1) MM1 S cells were purchased from ATCC (cat. Number CRL-2974), sub-cultured in 90% RPMI 1640 with 10% FBS, supplemented with 1×P/S and incubated at 37° C., 5% CO2. Compounds were stored as 10 mM DMSO stock. For the assay, MM1 S cells (3 million cells/well) were plated in 6-well plates and incubated over night. Cells were treated with respective compounds using a serial dilution: 0.3 μM, 3 μM and 30 μM as well as a vehicle only (DMSO) control for 6 hours. Media with suspension cells was subsequently transferred to 15 mL conical tubes, wells rinsed twice with ice-cold PBS and merged with cell suspension in respective 15 mL conical tube. Cells were spinned down, supernatant aspirated, pellets resuspended in ice-cold PBS and transferred to microtubes. Cells were spinned down, supernatant aspirated and pellets resuspended in 120 μL RIPA lysis buffer supplemented with protease and phosphatase inhibitors. Cell lysates were incubated on ice for 20 minutes followed by centrifugation at >20,000×g for 5 min. Supernatants were transferred to fresh microtubes and stored at −80° C. Total protein concentration was determined using a BCA assay with a BSA standard curve and concentration of all samples was adjusted to 1 mg/mL. 25 μL 4×LDS sample buffer supplemented with 100 mM DTT was added to 75 μL sample. Samples were centrifuged (8,000×g, 1 min) and incubated at 95° C. for 5 min followed by another centrifugation step (8,000×g, 1 min). 20 μL of each sample was loaded on a 4-12% gel alongside a protein molecular weight marker. Gels were run in the presence of MOPS buffer at 80 Volts for 30 min, followed by 120 Volts for 1.5 h and proteins subsequently transferred onto nitrocellulose membranes at 20 Volts for 7 min using an iBlot2 Gel Transfer Device. Membranes were then cut horizontally into two pieces, covering 80-50 kDa and 50-25 kDa. Blocking the membranes was performed by gently shaking in 5% (w/v) skim milk in TSB-T for 1 hr at room temperature. All primary antibodies were used at a 1/1000 in 5% (w/v) BSA dissolved in TBST and incubated with membranes over night at 4° C. After three washes with 1×TBST for 5 min, HRP-coupled secondary antibodies diluted in 5% (w/v) BSA/TBST (Goat Anti-Rb IgG, dil. 1/10,000; Goat Anti-Mouse IgG, dil. 1/5000) were added for 1 hr at room temperature. After three washes with 1×TBST (5 minutes each), membranes were incubated with ECL reagent for 1 min at room temperature. Chemiluminescence signals were then detected using a LAS-4000 system with default settings and signals quantified using Image Studio Lite software (version 5.2). Membrane parts previously incubated with antibody against CK1 alpha were stripped off antibodies by incubating with stripping buffer for 30 minutes followed by three washed with TBST (5 min each), blocking with 5% (w/v) skim milk for 1 hr, and incubation with primary antibody against uGAPDH overnight at 4° C. Subsequent washes, incubation with secondary antibody and signal acquisition were performed as described above.

The target in the next assay is T3, IKZF3 (Homo sapiens, UniProt Q96SW2+Q9UKT9).
T3 construct: endogenous in cells; host or cells: MM1 S (ATCC CRL-2974)
T3 sequence (Q9UKT9 whole entry): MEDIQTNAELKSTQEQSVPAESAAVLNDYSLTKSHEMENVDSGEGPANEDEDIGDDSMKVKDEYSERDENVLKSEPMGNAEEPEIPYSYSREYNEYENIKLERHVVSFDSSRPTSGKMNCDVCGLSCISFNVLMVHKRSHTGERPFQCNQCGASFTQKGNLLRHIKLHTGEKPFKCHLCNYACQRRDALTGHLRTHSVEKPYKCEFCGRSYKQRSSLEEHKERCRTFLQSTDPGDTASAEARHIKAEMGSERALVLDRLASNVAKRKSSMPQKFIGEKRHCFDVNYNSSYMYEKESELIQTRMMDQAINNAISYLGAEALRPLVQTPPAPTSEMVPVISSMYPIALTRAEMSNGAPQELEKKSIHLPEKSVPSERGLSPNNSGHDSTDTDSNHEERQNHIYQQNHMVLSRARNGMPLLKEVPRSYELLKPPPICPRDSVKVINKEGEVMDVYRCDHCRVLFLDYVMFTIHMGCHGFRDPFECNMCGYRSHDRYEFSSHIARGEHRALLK
T3 sequence (Q96SW2 whole entry): as the sequence (Q96SW2 whole entry) above
T3 sequence (Q16531 whole entry partner): as the sequence (Q16531 whole entry partner) above
Put plainly: Selectivity western blot assay in MM1 S cells, IKZF3. Type of assay: cell-based. The conditions noted are these: MM1 S cells, 0.3, 3 and 30 μM, 6 hours. The protocol: as §1
Background: A western blot detects proteins with antibodies after separation by electrophoresis.

A further assay deals with T4, CK1alpha (Homo sapiens, UniProt P48729+Q96SW2).
T4 construct: endogenous in cells; host or cells: MM1 S (ATCC CRL-2974)
T4 sequence (P48729 whole entry): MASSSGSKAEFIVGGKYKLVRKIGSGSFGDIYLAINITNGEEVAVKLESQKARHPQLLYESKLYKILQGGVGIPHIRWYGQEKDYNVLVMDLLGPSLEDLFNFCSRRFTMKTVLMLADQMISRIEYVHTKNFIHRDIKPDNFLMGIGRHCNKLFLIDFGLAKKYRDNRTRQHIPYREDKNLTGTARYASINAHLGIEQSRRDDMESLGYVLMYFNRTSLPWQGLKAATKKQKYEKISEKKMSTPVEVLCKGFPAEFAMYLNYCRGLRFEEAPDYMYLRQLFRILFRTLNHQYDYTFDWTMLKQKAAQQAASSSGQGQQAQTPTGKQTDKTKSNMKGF
T4 sequence (Q96SW2 whole entry): as the sequence (Q96SW2 whole entry) above
T4 sequence (Q16531 whole entry partner): as the sequence (Q16531 whole entry partner) above
Put plainly: Selectivity western blot assay in MM1 S cells, CK1alpha. Type of assay: cell-based. Also noted: key: A represents no degradation observed at 30 μM; B represents trace degradation at 30 μM (below 20%); C represents weak degradation at 30 μM (below 50%); D represents degradation at 30 μM (>90%); E represents degradation at 3 μM (>90%); F represents degradation at 0.3 μM (>90%). The conditions noted are these: MM1 S cells, 0.3, 3 and 30 μM, 6 hours. The protocol: as §1

The target of another assay is GSPT1 (Homo sapiens, UniProt P15170+Q96SW2). Put plainly: Selectivity western blot assay in MM1 S cells, GSPT1. Type of assay: cell-based. Also noted: endogenous in cells; host or cells: MM1 S (ATCC CRL-2974). Conditions: MM1 S cells, 0.3, 3 and 30 μM, 6 hours. The protocol: as §1
Chain of GSPT1 (P15170 whole entry): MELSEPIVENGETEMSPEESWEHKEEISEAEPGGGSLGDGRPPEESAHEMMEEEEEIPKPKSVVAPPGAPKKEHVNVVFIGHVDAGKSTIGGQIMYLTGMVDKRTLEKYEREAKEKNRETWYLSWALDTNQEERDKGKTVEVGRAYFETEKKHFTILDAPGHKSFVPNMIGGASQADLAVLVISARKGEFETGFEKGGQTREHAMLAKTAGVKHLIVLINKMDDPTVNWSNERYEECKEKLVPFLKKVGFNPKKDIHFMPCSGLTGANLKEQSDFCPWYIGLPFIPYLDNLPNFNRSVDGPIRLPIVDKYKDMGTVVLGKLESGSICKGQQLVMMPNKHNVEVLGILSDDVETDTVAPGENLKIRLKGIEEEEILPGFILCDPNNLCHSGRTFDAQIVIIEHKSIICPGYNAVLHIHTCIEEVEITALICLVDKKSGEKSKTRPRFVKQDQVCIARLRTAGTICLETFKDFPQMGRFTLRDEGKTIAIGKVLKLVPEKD
Chain of GSPT1 (Q96SW2 whole entry): as the sequence (Q96SW2 whole entry) above
Chain of GSPT1 (Q16531 whole entry partner): as the sequence (Q16531 whole entry partner) above

By IC50 is commonly meant the concentration that inhibits the measured activity by half.

T1 sequence (Q96SW2 whole entry): as the sequence (Q96SW2 whole entry) above

Consider `Cc1c(Cl)cc(NC(=O)NCc2ccc3c(c2)C(=O)N(C2CCC(=O)NC2=O)C3)cc1CN1C2CCC1COC2` (centres unmarked) [Compound 138], for which, in assay [1], the IC50 was < 1100 nM. Also, the IKZF1 degradation entry at IKZF1 was “C (C represents weak degradation at 30 μM (below 50%))”. Besides, the IKZF3 degradation result at IKZF3 is “B (B represents trace degradation at 30 μM (below 20%))”. For the same compound, the CK1alpha degradation result at CK1alpha is “A”. Also, the GSPT1 degradation entry on GSPT1 is recorded as “F (F represents degradation at 0.3 μM (>90%))”.

Regarding `Cc1ccc(NC(=O)NCc2ccc3c(c2)C(=O)N(C2CCC(=O)NC2=O)C3)cc1Cl` (centres unmarked) [Compound 8], the IC50 in assay [1] was < 1100 nM. The IKZF1 degradation entry at IKZF1 is recorded as “A”. For the same compound, the IKZF3 degradation entry at IKZF3 is given as “B (B represents trace degradation at 30 μM (below 20%))”. For the same compound, at CK1alpha, the CK1alpha degradation entry was “A”. In addition, the GSPT1 degradation entry on GSPT1 was “F (F represents degradation at 0.3 μM (>90%))”.

With `Cc1ccc(NC(=O)OCc2ccc3c(c2)C(=O)N(C2CCC(=O)NC2=O)C3)cc1Cl` (centres unmarked) [Compound 210], at IKZF1, the IKZF1 degradation result was “A”. Also, the IKZF3 degradation entry at IKZF3 is recorded as “B (B represents trace degradation at 30 μM (below 20%))”. In addition, the CK1alpha degradation result at CK1alpha is on record as “B (B represents trace degradation at 30 μM (below 20%))”. Also, the GSPT1 degradation result at GSPT1 is recorded as “D (D represents degradation at 30 μM (>90%))”.
